US10131652B2, “Pyrimidinyloxy benzene derivatives as herbicides” (E. I. DU PONT DE NEMOURS AND COMPANY, priority 2014, dated 2018)
Where two headings read alike, the source gives them in different places.

Legend:
Type in all cases: in vivo
[1] = test system: green foxtail (Setaria viridis); test: Test F pre-/postemergence plant response; details: Setaria viridis, pre-emergence, Preemergence, scale 0 to 100, read-out: Plant response rating, Foxtail, Green
Method in brief: (§1)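 Formulation: non-phytotoxic solvent mix + surfactant. Preemergence: applied to seeded silt loam. Postemergence: foliar, 1- to 4-leaf plants, 2–18 cm. Greenhouse hold 14–21 days; visual score vs controls, 0 = no effect, 100 = complete control; dash = not tested.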

[2] = test system: Brazilian crabgrass (Digitaria horizontalis); test: Test F pre-/postemergence plant response; details: Digitaria horizontalis, scale 0 to 100, read-out: Plant response rating, Crabgrass, Brazil
Method in brief: as §1

[3] = test system: johnsongrass (Sorghum halepense); test: Test F pre-/postemergence plant response; details: Sorghum halepense, pre-emergence, scale 0 to 100, read-out: Plant response rating, Johnsongrass
Method in brief: as §1

[4] = test system: wild poinsettia (Euphorbia heterophylla); test: Test F pre-/postemergence plant response; details: Euphorbia heterophylla, scale 0 to 100, read-out: Plant response rating, Poinsettia, Wild
Method in brief: as §1

[5] = test system: blackgrass (Alopecurus myosuroides); test: Test E pre-/postemergence plant response; details: scale 0 to 100, read-out: Plant response rating, Blackgrass; for pest or weed control at 16 g/ha: 16 g ai/ha; for pest or weed control at 31 g/ha: 31 g ai/ha; for pest or weed control at 62 g/ha: 62 g ai/ha; for pest or weed control at 125 g/ha: 125 g ai/ha
Method in brief: (§2)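 Pre-emergence: seeds sown in silt loam soil and sprayed with test chemicals in a non-phytotoxic solvent/surfactant mix. Post-emergence: plants at 2–18 cm (1- to 4-leaf stage) in peat/vermiculite medium treated with the same formulation. Visual rating versus controls after 7–21 days, 0 (no effect) to 100 (complete control).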

[6] = test system: oilseed rape (Brassica napus); test: Test E pre-/postemergence plant response; details: scale 0 to 100, read-out: Plant response rating, Oilseed Rape; for plant injury at 16 g/ha: 16 g ai/ha; for plant injury at 31 g/ha: 31 g ai/ha; for plant injury at 62 g/ha: 62 g ai/ha; for plant injury at 125 g/ha: 125 g ai/ha
Method in brief: as §2

wild oat (Avena fatua) = test: Test E pre-/postemergence plant response; details: scale 0 to 100, read-out: Plant response rating, Oat, Wild; for pest or weed control at 16 g/ha: 16 g ai/ha; for pest or weed control at 31 g/ha: 31 g ai/ha; for pest or weed control at 62 g/ha: 62 g ai/ha; for pest or weed control at 125 g/ha: 125 g ai/ha
Method in brief: as §2

[7] = test system: chamomile (scentless chamomile, Matricaria inodora); test: Test E pre-/postemergence plant response; details: Tripleurospermum inodorum, scale 0 to 100, read-out: Plant response rating, Chamomile; for pest or weed control at 16 g/ha: 16 g ai/ha; for pest or weed control at 31 g/ha: 31 g ai/ha; for pest or weed control at 62 g/ha: 62 g ai/ha; for pest or weed control at 125 g/ha: 125 g ai/ha
Method in brief: as §2

kochia (Kochia scoparia) = test: Test E pre-/postemergence plant response; details: Bassia scoparia, scale 0 to 100, read-out: Plant response rating, Kochia; for pest or weed control at 16 g/ha: 16 g ai/ha; for pest or weed control at 31 g/ha: 31 g ai/ha; for pest or weed control at 62 g/ha: 62 g ai/ha; for pest or weed control at 125 g/ha: 125 g ai/ha
Method in brief: as §2

[8] = post-emergence, 16 g ai/ha Postemergence
[9] = post-emergence, 31 g ai/ha Postemergence
[10] = post-emergence, 62 g ai/ha Postemergence
[11] = post-emergence, 125 g ai/ha Postemergence
[12] = pre-emergence, 16 g ai/ha Preemergence
[13] = pre-emergence, 31 g ai/ha Preemergence
[14] = pre-emergence, 125 g ai/ha Preemergence

Work on `Fc1cccc(Oc2ncc(Br)cn2)c1-c1cc(C(F)F)no1` [Compound 145, 5-bromo-2-[2-[3-(difluoromethyl)-5-isoxazolyl]-3-fluorophenoxy]pyrimidine] yielded a pest or weed control at 16 g/ha ([1]; 16 g ai/ha) of 5%, a pest or weed control at 31 g/ha ([1]; 31 g ai/ha) of 40% and a pest or weed control at 125 g/ha ([1]; 125 g ai/ha) of 100%. For the same compound, the pest or weed control at 62 g/ha [1] was 100%, the pest or weed control at 16 g/ha [2, 8] was 20% and the pest or weed control at 31 g/ha [2, 9] was 20%. The pest or weed control at 62 g/ha [2, 10] was 40%, the pest or weed control at 125 g/ha [2, 11] was 50% and the pest or weed control at 16 g/ha [2, 12] was 5%. For the same compound, the pest or weed control at 31 g/ha [2, 13] was 80%, the pest or weed control at 62 g/ha ([2]; pre-emergence, 62 g ai/ha Preemergence) was 95% and the pest or weed control at 125 g/ha [2, 14] was 100%. It also gave a pest or weed control at 16 g/ha ([3]; 16 g ai/ha Preemergence) of 0%, a pest or weed control at 31 g/ha ([3]; 31 g ai/ha Preemergence) of 20% and a pest or weed control at 125 g/ha ([3]; 125 g ai/ha Preemergence) of 85%. For the same compound, the pest or weed control at 62 g/ha ([3]; Preemergence) was 100%, the pest or weed control at 16 g/ha [4, 8] was 70% and the pest or weed control at 31 g/ha [4, 9] was 75%. For the same compound, the pest or weed control at 62 g/ha [4, 10] was 80%, the pest or weed control at 125 g/ha [4, 11] was 80% and the pest or weed control at 16 g/ha [4, 12] was 0%. For the same compound, the pest or weed control at 31 g/ha [4, 13] was 0%, the pest or weed control at 125 g/ha [4, 14] was 65% and the pest or weed control at 62 g/ha ([4]; pre-emergence, Preemergence) was 65%. For the same compound, the pest or weed control at 16 g/ha ([5]; post-emergence, Postemergence) was 25%, the pest or weed control at 31 g/ha ([5]; post-emergence, Postemergence) was 35% and the pest or weed control at 62 g/ha ([5]; post-emergence, Postemergence) was 65%. The pest or weed control at 125 g/ha ([5]; post-emergence, Postemergence) was 80%, the pest or weed control at 16 g/ha ([5]; pre-emergence, Preemergence) was 10% and the pest or weed control at 31 g/ha ([5]; pre-emergence, Preemergence) was 50%. The pest or weed control at 62 g/ha ([5]; pre-emergence, Preemergence) was 60%, the pest or weed control at 125 g/ha ([5]; pre-emergence, Preemergence) was 75% and the plant injury at 16 g/ha ([6]; post-emergence, Postemergence) was 70%. For the same compound, the plant injury at 31 g/ha ([6]; post-emergence, Postemergence) was 100%, the plant injury at 62 g/ha ([6]; post-emergence, Postemergence) was 100% and the plant injury at 125 g/ha ([6]; post-emergence, Postemergence) was 100%. It also gave a plant injury at 16 g/ha ([6]; pre-emergence, Preemergence) of 50%, a plant injury at 31 g/ha ([6]; pre-emergence, Preemergence) of 100% and a plant injury at 62 g/ha ([6]; pre-emergence, Preemergence) of 100%. The plant injury at 125 g/ha ([6]; pre-emergence, Preemergence) was 100%, the pest or weed control at 16 g/ha (wild oat (Avena fatua); post-emergence, Postemergence) was 15% and the pest or weed control at 31 g/ha (wild oat (Avena fatua); post-emergence, Postemergence) was 30%. For the same compound, the pest or weed control at 62 g/ha (wild oat (Avena fatua); post-emergence, Postemergence) was 40%, the pest or weed control at 125 g/ha (wild oat (Avena fatua); post-emergence, Postemergence) was 80% and the pest or weed control at 16 g/ha (wild oat (Avena fatua); pre-emergence, Preemergence) was 25%. For the same compound, the pest or weed control at 31 g/ha (wild oat (Avena fatua); pre-emergence, Preemergence) was 30%, the pest or weed control at 62 g/ha (wild oat (Avena fatua); pre-emergence, Preemergence) was 30% and the pest or weed control at 125 g/ha (wild oat (Avena fatua); pre-emergence, Preemergence) was 85%. The pest or weed control at 16 g/ha ([7]; post-emergence, Postemergence) was 20%, the pest or weed control at 31 g/ha ([7]; post-emergence, Postemergence) was 30% and the pest or weed control at 62 g/ha ([7]; post-emergence, Postemergence) was 30%. The pest or weed control at 125 g/ha ([7]; post-emergence, Postemergence) was 30%, the pest or weed control at 16 g/ha ([7]; pre-emergence, Preemergence) was 5% and the pest or weed control at 31 g/ha ([7]; pre-emergence, Preemergence) was 100%. It also gave a pest or weed control at 62 g/ha ([7]; pre-emergence, Preemergence) of 100%, a pest or weed control at 125 g/ha ([7]; pre-emergence, Preemergence) of 100% and a pest or weed control at 16 g/ha (kochia (Kochia scoparia); post-emergence, Postemergence) of 98%. The pest or weed control at 31 g/ha (kochia (Kochia scoparia); post-emergence, Postemergence) was 100%, the pest or weed control at 62 g/ha (kochia (Kochia scoparia); post-emergence, Postemergence) was 100% and the pest or weed control at 125 g/ha (kochia (Kochia scoparia); post-emergence, Postemergence) was 100%. The pest or weed control at 16 g/ha (kochia (Kochia scoparia); pre-emergence, Preemergence) was 60%, the pest or weed control at 31 g/ha (kochia (Kochia scoparia); pre-emergence, Preemergence) was 100% and the pest or weed control at 62 g/ha (kochia (Kochia scoparia); pre-emergence, Preemergence) was 100%. It also gave a pest or weed control at 125 g/ha (kochia (Kochia scoparia); pre-emergence, Preemergence) of 100%.
